Measured values taken from the supplement of paper PMC10307832.

Legend:
Experiment in all cases: relative viability (nuclei count vs DMSO), 5 days (fraction); higher = more cells survive
Axitinib + Decitabine = compound: CNC(=O)c1ccccc1Sc1ccc2c(/C=C/c3ccccn3)n[nH]c2c1 [Axitinib] + Nc1ncn([C@H]2C[C@H](O)[C@@H](CO)O2)c(=O)n1 [Decitabine] (partner 2 µM)
Method in brief: (§1)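 Lung cancer cell lines were pin-tool dosed in 1536-well plates on the day after seeding, with either a lone drug or a fixed anchor-drug dose plus five library-drug doses (not always all listed) in √10 steps. Nuclei were counted on 4× images after 5 days. Relative viability is the ratio of treated-well to vehicle-well nuclei counts, with each value a median of duplicate plates.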

Bemcentinib + Luminespib = compound: Nc1nc(Nc2ccc3c(c2)CC[C@@H](N2CCCC2)CC3)nn1-c1cc2c(nn1)-c1ccccc1CCC2 [Bemcentinib] + CCNC(=O)c1noc(-c2cc(C(C)C)c(O)cc2O)c1-c1ccc(CN2CCOCC2)cc1 [Luminespib] (partner 0.01 µM)
Method in brief: as §1

[1] = compound: CC1=CC=C(C=C1)C(=O)CN2C3=C(CCCC3)SC2=N [Pifithrin_alpha] + CC(C)C[C@H](NC(=O)[C@H](Cc1ccccc1)NC(=O)c1cnccn1)B(O)O [Bortezomib] (partner 0.002 µM)
Method in brief: as §1

[2] = compound: CC1=CC=C(C=C1)C(=O)CN2C3=C(CCCC3)SC2=N [Pifithrin_alpha] + C[C@@H](Oc1cc(-c2cnn(C3CCNCC3)c2)cnc1N)c1c(Cl)ccc(F)c1Cl [Crizotinib] (partner 1 µM)
Method in brief: as §1

Cell Line | relative viability (Axitinib + Decitabine; first compound 0.005 µM) | relative viability (Axitinib + Decitabine; first compound 0.01581 µM) | relative viability (Axitinib + Decitabine; first compound 0.05 µM) | relative viability (Axitinib + Decitabine; first compound 0.1581 µM) | relative viability (Axitinib + Decitabine; first compound 0.5 µM) | relative viability (Bemcentinib + Luminespib; first compound 0.04 µM) | relative viability (Bemcentinib + Luminespib; first compound 0.1265 µM) | relative viability (Bemcentinib + Luminespib; first compound 0.4 µM) | relative viability (Bemcentinib + Luminespib; first compound 4 µM) | relative viability ([1]; first compound 1 µM) | relative viability ([1]; first compound 3.162 µM) | relative viability ([1]; first compound 10 µM) | relative viability ([1]; first compound 31.62 µM) | relative viability ([1]; first compound 100 µM) | relative viability ([2]; first compound 1 µM) | relative viability ([2]; first compound 3.162 µM) | relative viability ([2]; first compound 10 µM) | relative viability ([2]; first compound 100 µM) | relative viability (Bemcentinib + Luminespib; first compound 1.265 µM) | relative viability ([2]; first compound 31.62 µM)
NCI-H1793 | 0.595 | 0.55 | 0.478 | 0.413 | 0.559 | 0.211 | 0.179 | 0.169 | 0.18 | – | – | – | – | – | – | – | – | – | – | –
HCC-78 | 0.69 | 0.577 | 0.806 | 0.698 | 0.653 | – | – | – | – | 0.415 | 0.394 | 0.472 | 0.418 | 0.477 | 0.319 | 0.289 | 0.321 | 0.321 | – | –
NCI-H322M | 0.715 | 0.667 | 0.673 | 0.675 | 0.686 | 0.828 | 0.943 | 0.835 | 0.804 | 1.19 | 1.07 | 1.29 | 1.26 | 1.03 | 0.894 | 0.907 | 0.871 | 0.986 | 0.817 | 0.674
NCI-H1944 | 0.47 | 0.428 | 0.452 | 0.397 | 0.455 | 0.735 | 0.836 | 0.791 | 0.758 | – | – | – | – | – | 1.13 | 1.18 | 0.866 | 0.958 | 0.705 | –
HCC-366 | 0.361 | 0.356 | 0.393 | 0.323 | 0.423 | – | – | – | – | 1.33 | 0.706 | 1.07 | – | 1.1 | 0.812 | 0.517 | 0.418 | 0.198 | – | –
NCI-H1623 | – | – | – | – | – | 0.498 | 0.547 | 0.588 | 0.467 | – | – | – | – | – | – | – | – | – | 0.481 | –
NCI-H2342 | 0.717 | 0.68 | 0.769 | 0.658 | 0.794 | 0.689 | 0.762 | 0.679 | 0.794 | – | – | – | – | – | – | – | – | – | 0.83 | –
IA-LM | – | – | – | – | – | – | – | – | – | 0.984 | 0.415 | 0.281 | 0.33 | 0.339 | 0.652 | 0.622 | 0.705 | 0.433 | – | 0.463
SK-MES-1 | 0.324 | 0.361 | 0.364 | 0.348 | 0.449 | 0.456 | 0.742 | 0.786 | 1.07 | – | – | – | – | – | 0.934 | 0.933 | 0.976 | 0.765 | 0.761 | 0.683
NCI-H2170 | 0.483 | 0.439 | 0.411 | 0.48 | 0.488 | 0.568 | 0.923 | 0.649 | 0.869 | – | – | – | – | – | 1.3 | 1.32 | 1.24 | 1.19 | 0.809 | 0.96
NCI-H1648 | 0.537 | 0.574 | 0.568 | 0.519 | 0.478 | – | – | – | – | – | – | – | – | – | – | – | – | – | – | –
LK-2 | 0.262 | 0.245 | 0.298 | 0.347 | 0.222 | 0.218 | 0.167 | 0.151 | 0.182 | – | – | – | – | – | 0.2 | 0.22 | 0.217 | 0.212 | 0.172 | –
NCI-H1395 | 0.795 | 0.681 | 0.622 | 0.746 | 0.751 | 0.611 | 0.733 | 0.808 | 1 | – | – | – | – | – | – | – | – | – | 0.686 | –
NCI-H358 | 0.226 | 0.222 | 0.221 | 0.214 | 0.198 | 0.319 | 0.335 | 0.303 | 0.369 | – | – | – | – | – | 0.616 | 0.589 | 0.516 | 0.625 | 0.247 | 0.428
Calu-6 | – | – | – | – | – | – | – | – | – | 1.07 | 1.04 | 0.899 | 0.569 | 0.881 | 0.944 | 0.742 | 0.813 | 0.85 | – | 0.605
NCI-H1563 | – | – | – | – | – | 0.507 | 0.538 | 0.475 | 0.535 | 0.732 | 0.697 | 0.755 | 0.733 | 0.78 | 0.907 | 0.846 | 0.714 | 0.731 | 0.55 | 0.832
EBC-1 | – | – | – | – | – | – | – | – | – | 0.512 | 0.411 | 0.437 | 0.354 | 0.287 | 0.187 | 0.21 | 0.168 | 0.152 | – | 0.16
NCI-H1703 | – | – | – | – | – | – | – | – | – | 0.416 | 0.344 | 0.368 | 0.288 | 0.279 | 0.577 | 0.531 | 0.803 | 1.05 | – | 0.455
NCI-H2228 | – | – | – | – | – | 0.128 | 0.152 | 0.159 | 0.134 | 0.919 | 1.03 | 0.926 | 0.86 | 0.722 | 0.3 | 0.424 | 0.432 | 0.376 | 0.111 | 0.263
SW 900 | 0.428 | – | 0.477 | 0.4 | 0.602 | 0.169 | 0.203 | 0.174 | 0.17 | – | – | – | – | – | – | – | – | – | 0.156 | –
NCI-H1299 | – | – | – | – | – | – | – | – | – | 1.08 | 1.02 | 1.02 | 0.896 | 1.03 | 0.997 | 0.992 | 1.05 | 0.897 | – | 0.76
CAL-12T | – | – | – | – | – | 0.273 | 0.462 | 0.388 | 0.453 | 0.962 | 1.09 | 1.02 | 0.666 | 0.809 | – | 0.656 | 0.58 | 0.555 | 0.363 | 0.5
NCI-H522 | 0.639 | 0.725 | 0.625 | 0.63 | 0.624 | 0.95 | 1.15 | 1.16 | 1.06 | – | – | – | – | – | – | – | – | – | 1.21 | –
A549 | 0.324 | 0.296 | 0.338 | 0.243 | 0.324 | – | – | – | – | – | – | – | – | – | 0.989 | 0.761 | 0.817 | 0.799 | – | 0.552
